We go through one molecule from patent US8309582B2, “Small molecule Bcl-Xl/Bcl-2 binding inhibitors” (The Ohio State University Research Foundation, priority 2004, dated 2012).

Assay [1] can be described thus: WB (IC50 for WB, Tables 1-9). Type of assay: cell-based. The settings on record: marker, cell line and unit inferred. On the procedure: (§1) Immunoblotting. Cells in T-75 flasks were collected by scraping, and suspended in 60 μl of phosphate-buffered saline (PBS). Two μl of the suspension was taken for protein analysis using the Bradford assay kit (Bio-Rad, Hercules, Calif.). To the remaining solution was added the same volume of 2×SDS-PAGE sample loading buffer (100 mM Tris-HCl, pH 6.8, 4% SDS, 5% β-mercaptoethanol 20% glycerol, and 0.1% bromophenol blue). The mixture was sonicated briefly, and boiled for 5 min. Equal amounts of proteins were loaded onto 10% SDS-PAGE gels.
(§2) After electrophoresis, protein bands were transferred to nitrocellulose membranes in a semidry transfer cell. The transblotted membrane was washed twice with Tris-buffered saline (TBS) containing 0.1% Tween 20 (TBST). After blocking with TBST containing 5% nonfat milk for 40 min, the membrane was incubated with the appropriate primary antibody in TBST-1% nonfat milk at 4° C. overnight. All primary antibodies were diluted 1:1000 in 1% nonfat milk-containing TBST. After treatment with the primary antibody, the membrane was washed three times with TBST for a total of 15 min, followed by incubation with goat anti-rabbit or anti-mouse IgG-horseradish peroxidase conjugates (diluted 1:5000) for 1 h at room temperature and three washes with TBST for a total of 1 h. The immunoblots were visualized by enhanced chemiluminescence.

A further assay addresses T1, Bcl-xL (Homo sapiens, UniProt Q07817).
T1 construct: fused on or other part: His tag
Kind of assay: Competitive fluorescence polarization assay, displacement of Flu-BakBH3 peptide from Bcl-xL. To be noted: inhibition of Bak BH3 peptide binding to Bcl-xL, FP; read-out: IC50 Bcl-xl/Bak. It counts as binding. How it is done: (§3) Competitive Fluorescence Polarization Assay. The binding affinity of the test agent to Bcl-2 and Bcl-xL was analyzed by a competitive fluorescence polarization assay, in which the ability of the agent to displace the binding of a Bak BH3-domain peptide to either Bcl-2 or Bcl-xL was determined. Flu-BakBH3, a Bak-BH3 peptide labeled at the N-terminus with fluorescein, was purchased from Genemed Synthesis (San Francisco, Calif.). C-Terminal-truncated, His-tagged Bcl-xL was purchased from EMD Biosciences (San Diego, Calif.), and soluble GST-fused Bcl-2 was obtained from Santa Cruz (Santa Cruz, Calif.). The KD determination was carried out in a dual-pathlength quartz cell with readings taken at […] at room temperature using a luminescence spectrometer according to an established procedure (17). Determination of IC50 values. Data from cell viability and FP assays were analyzed by using the CalcuSyn software (Biosoft, Ferguson, Mo.) to determine IC50 values, in which the calculation was based on the medium effect equation (18), i.e., Log(fa/fu)=m log(D)−m log(Dm) (equation 1), where fa and fu denote fraction affected and unaffected, respectively; m represents the Hill-type coefficient signifying the sigmoidicity of the dose-effect curve; D and Dm are the dose used and IC50, respectively.

For a further assay, the target named is Bcl-2 (Homo sapiens, UniProt P10415). Kind of assay: Competitive fluorescence polarization assay, displacement of Flu-BakBH3 peptide from Bcl-2. Type of assay: binding. The settings on record: inhibition of Bak BH3 peptide binding to Bcl-2, FP; read-out: IC50 Bcl-2/Bak. On the procedure:
as §3

In another assay the test system is PC-3 cells. Briefly: Cell viability analysis (MTT) in PC-3 cells. To be noted: Homo sapiens, PC-3, PC-3 cells, read-out: IC50 (μM) PC3. It counts as cell-based. On the procedure: Cell viability analysis. The effect of individual test agents on cell viability was assessed by using the MTT {[3-(4,5-dimethylthiazol-2-yl)-2,5-diphenyl-2H-tetrazolium bromide]} assay in six to twelve replicates. […] Controls received DMSO vehicle at a concentration equal to that in drug-treated cells. […] Supernatants were removed from the wells, and the reduced MTT dye was solubilized in 200 μl/well DMSO. Absorbance at 570 nm was determined on a plate reader.
(§4) Determination of IC50 values. Data from cell viability and FP assays were analyzed by using the CalcuSyn software (Biosoft, Ferguson, Mo.) to determine IC50 values, in which the calculation was based on the medium effect equation (18), i.e., Log(fa/fu)=m log(D)−m log(Dm) (equation 1), where fa and fu denote fraction affected and unaffected, respectively; m represents the Hill-type coefficient signifying the sigmoidicity of the dose-effect curve; D and Dm are the dose used and IC50, respectively.

The subject of the next assay is LNCaP cells. Kind of assay: Cell viability analysis (MTT) in LNCaP cells. It counts as cell-based. The settings on record: Homo sapiens. On the procedure:
Cell viability analysis. The effect of individual test agents on cell viability was assessed by using the MTT {[3-(4,5-dimethylthiazol-2-yl)-2,5-diphenyl-2H-tetrazolium bromide]} assay in six to twelve replicates. Cells were seeded and incubated in 96-well, flat-bottomed plates in serum-free media for 24 h, and were exposed to various concentrations of test agents dissolved in DMSO (final concentration, 0.1%) in serum-free RPMI 1640 medium for different time intervals. Controls received DMSO vehicle at a concentration equal to that in drug-treated cells. The medium was removed, replaced by 200 μl of 0.5 mg/ml of MTT in 10% FBS-containing RPMI-1640 medium, and cells were incubated in the CO2 incubator at 37° C. for 2 h. Supernatants were removed from the wells, and the reduced MTT dye was solubilized in 200 μl/well DMSO. Absorbance at 570 nm was determined on a plate reader.
as §4

A further assay concerns the target T2, PPARγ (Homo sapiens, UniProt P37231).
T2 construct: endogenous in cells; host or cells: PC-3 prostate cancer cells
T2 sequence (P37231 1-505): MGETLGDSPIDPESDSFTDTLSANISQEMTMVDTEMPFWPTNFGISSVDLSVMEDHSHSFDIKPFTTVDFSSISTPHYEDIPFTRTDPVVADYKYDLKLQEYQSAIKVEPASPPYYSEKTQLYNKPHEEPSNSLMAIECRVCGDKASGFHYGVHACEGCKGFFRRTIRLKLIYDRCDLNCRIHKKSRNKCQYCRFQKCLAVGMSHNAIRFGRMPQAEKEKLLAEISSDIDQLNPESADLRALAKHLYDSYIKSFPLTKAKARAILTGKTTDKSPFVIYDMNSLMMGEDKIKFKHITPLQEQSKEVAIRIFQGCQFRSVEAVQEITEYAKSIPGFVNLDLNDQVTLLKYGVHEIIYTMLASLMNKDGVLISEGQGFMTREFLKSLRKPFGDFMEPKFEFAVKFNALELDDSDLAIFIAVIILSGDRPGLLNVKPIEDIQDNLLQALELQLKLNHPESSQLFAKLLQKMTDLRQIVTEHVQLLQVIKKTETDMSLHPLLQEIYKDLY
Briefly: Analysis of PPARγ activation (transcription factor ELISA, PC-3 nuclear extracts). Type of assay: cell-based. To be noted: PC-3 cells, 10 μM, 48 h, versus DMSO vehicle. On the procedure:
Analysis of PPARγ activation. The analysis was carried out by using a PPARγ transcription factor ELISA kit (Active Motif, Carlsbad, Calif.), in which an oligonucleotide containing the peroxisome proliferator response element (PPRE) was immobilized onto a 96-well plate. PPARs contained in nuclear extracts bind specifically to this oligonucleotide and are detected through an antibody directed against PPARγ. […] Cells were collected, and nuclear extracts were prepared with a Nuclear Extract kit (Active Motif, Carlsbad, Calif.). Nuclear extracts of the same protein concentration from individual treatments were subject to the PPARγ transcription factor ELISA according to the manufacturer's instruction.

Another assay addresses T3, Bcl-2/Bak (Homo sapiens, UniProt P10415).
T3 construct: endogenous in cells; host or cells: PC-3 prostate cancer cells
Briefly: Co-immunoprecipitation of Bak with Bcl-2 in PC-3 cells. The settings on record: 50 μM, 12 h, compared to DMSO control. Type of assay: cell-based. How it is done: (§5) Co-immunoprecipitation. […] After centrifugation at 13000×g for 15 min, the supernatants were collected, pre-incubated with protein A-Sepharose (Sigma, St. Louis, Mo.) for 15 min, and centrifuged at 1000×g for 5 min. The supernatants were exposed to Bcl-2 or Bcl-xL antibodies in the presence of protein A-Sepharose at 4° C. for 2 h. After brief centrifugation, protein A-Sepharose were collected, washed with the aforementioned lysis buffer 2 times, suspended in 2×SDS sample buffer, and subjected to Western blot analysis with antibodies against Bak.

Another assay has as its target T4, Bcl-xL/Bak (Homo sapiens, UniProt Q07817).
T4 construct: endogenous in cells; host or cells: PC-3 prostate cancer cells
Briefly: Co-immunoprecipitation of Bak with Bcl-xL in PC-3 cells. It counts as cell-based. To be noted: 50 μM, 12 h, compared to DMSO control. How it is done: as §5

A further assay relates to caspase-9. Briefly: Caspase-9 activation in PC-3 cells (Western blot). Type of assay: cell-based. The settings on record: 24 h. How it is done: as §1, §2

Structures are written as SMILES.

T3 sequence (P10415 whole entry): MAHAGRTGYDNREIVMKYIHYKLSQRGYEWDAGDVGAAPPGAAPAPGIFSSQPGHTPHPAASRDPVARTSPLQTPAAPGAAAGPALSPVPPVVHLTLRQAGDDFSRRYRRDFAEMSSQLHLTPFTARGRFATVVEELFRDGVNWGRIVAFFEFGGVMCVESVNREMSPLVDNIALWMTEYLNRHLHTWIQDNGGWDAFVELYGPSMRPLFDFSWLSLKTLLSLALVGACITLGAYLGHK
Chain of Bcl-2 (P10415 whole entry): as above
T1 sequence (Q07817 1-209 limits assumed): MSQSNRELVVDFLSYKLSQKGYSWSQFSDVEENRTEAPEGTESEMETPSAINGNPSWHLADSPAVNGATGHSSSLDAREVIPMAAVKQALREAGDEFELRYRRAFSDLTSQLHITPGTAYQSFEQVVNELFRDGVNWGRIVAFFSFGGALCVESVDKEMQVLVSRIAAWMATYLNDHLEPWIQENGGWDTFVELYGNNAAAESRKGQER
T4 sequence (Q07817 whole entry): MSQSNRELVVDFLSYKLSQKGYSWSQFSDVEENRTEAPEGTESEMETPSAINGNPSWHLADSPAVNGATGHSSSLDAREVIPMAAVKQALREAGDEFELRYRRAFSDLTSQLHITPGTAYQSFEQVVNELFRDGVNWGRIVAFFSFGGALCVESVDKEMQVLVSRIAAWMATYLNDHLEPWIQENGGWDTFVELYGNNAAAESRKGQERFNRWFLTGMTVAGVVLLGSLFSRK

As for `Cc1c(C)c2c(c(C)c1O)CCC(C)(COc1ccc(/C=C3\SC(=O)NC3=O)cc1)O2` (stereo not drawn) [Δ2-TG, 5-[4-(6-hydroxy-2,5,7,8-tetramethyl-chroman-2-ylmethoxy)-benzylidene]-2,4-thiazolidine-dione], the IC50 came to 22 µM in assay [1]; 18 ± 1 µM on Bcl-xL; 18 ± 1 µM at Bcl-2; 20 ± 2 µM in the assay with PC-3 cells; 14 ± 1 µM with LNCaP cells. For the same molecule, the “activity in PPARγ activation” value on PPARγ is on record as “completely devoid of the ligand binding activity”. Besides, the “level of Bak associated with Bcl-2” value on Bcl-2/Bak is “significantly reduced”. The “level of Bak associated with Bcl-xL” value at Bcl-xL/Bak is on record as “significantly reduced”. In addition, the caspase-9 activation result in the assay with caspase-9 was “dose-dependent”.
